Data: ChEMBL document CHEMBL3259523, “Triazolo[4,5-d]pyrimidine Derivatives as Inhibitors of GCN2” (ACS Med Chem Lett, 2014)
pIC50: −log10 of the molar value.

Legend:
eIF-2-alpha kinase GCN2 [1] = target: T1, eIF-2-alpha kinase GCN2 (Homo sapiens, UniProt Q9P2K8); assay: Inhibition of GCN2-mediated elF2alpha phosphorylation in human U2OS cells after 2 hrs by immunocytochemistry; type: cell-based
eIF-2-alpha kinase GCN2 [2] = target: T1, eIF-2-alpha kinase GCN2; assay: Inhibition of GCN2 (unknown origin) using GFP-elF2a as substrate preincubated with substrate for 20 mins measured after 90 mins by Lanthascreen assay

T1 sequence (Q9P2K8 whole entry): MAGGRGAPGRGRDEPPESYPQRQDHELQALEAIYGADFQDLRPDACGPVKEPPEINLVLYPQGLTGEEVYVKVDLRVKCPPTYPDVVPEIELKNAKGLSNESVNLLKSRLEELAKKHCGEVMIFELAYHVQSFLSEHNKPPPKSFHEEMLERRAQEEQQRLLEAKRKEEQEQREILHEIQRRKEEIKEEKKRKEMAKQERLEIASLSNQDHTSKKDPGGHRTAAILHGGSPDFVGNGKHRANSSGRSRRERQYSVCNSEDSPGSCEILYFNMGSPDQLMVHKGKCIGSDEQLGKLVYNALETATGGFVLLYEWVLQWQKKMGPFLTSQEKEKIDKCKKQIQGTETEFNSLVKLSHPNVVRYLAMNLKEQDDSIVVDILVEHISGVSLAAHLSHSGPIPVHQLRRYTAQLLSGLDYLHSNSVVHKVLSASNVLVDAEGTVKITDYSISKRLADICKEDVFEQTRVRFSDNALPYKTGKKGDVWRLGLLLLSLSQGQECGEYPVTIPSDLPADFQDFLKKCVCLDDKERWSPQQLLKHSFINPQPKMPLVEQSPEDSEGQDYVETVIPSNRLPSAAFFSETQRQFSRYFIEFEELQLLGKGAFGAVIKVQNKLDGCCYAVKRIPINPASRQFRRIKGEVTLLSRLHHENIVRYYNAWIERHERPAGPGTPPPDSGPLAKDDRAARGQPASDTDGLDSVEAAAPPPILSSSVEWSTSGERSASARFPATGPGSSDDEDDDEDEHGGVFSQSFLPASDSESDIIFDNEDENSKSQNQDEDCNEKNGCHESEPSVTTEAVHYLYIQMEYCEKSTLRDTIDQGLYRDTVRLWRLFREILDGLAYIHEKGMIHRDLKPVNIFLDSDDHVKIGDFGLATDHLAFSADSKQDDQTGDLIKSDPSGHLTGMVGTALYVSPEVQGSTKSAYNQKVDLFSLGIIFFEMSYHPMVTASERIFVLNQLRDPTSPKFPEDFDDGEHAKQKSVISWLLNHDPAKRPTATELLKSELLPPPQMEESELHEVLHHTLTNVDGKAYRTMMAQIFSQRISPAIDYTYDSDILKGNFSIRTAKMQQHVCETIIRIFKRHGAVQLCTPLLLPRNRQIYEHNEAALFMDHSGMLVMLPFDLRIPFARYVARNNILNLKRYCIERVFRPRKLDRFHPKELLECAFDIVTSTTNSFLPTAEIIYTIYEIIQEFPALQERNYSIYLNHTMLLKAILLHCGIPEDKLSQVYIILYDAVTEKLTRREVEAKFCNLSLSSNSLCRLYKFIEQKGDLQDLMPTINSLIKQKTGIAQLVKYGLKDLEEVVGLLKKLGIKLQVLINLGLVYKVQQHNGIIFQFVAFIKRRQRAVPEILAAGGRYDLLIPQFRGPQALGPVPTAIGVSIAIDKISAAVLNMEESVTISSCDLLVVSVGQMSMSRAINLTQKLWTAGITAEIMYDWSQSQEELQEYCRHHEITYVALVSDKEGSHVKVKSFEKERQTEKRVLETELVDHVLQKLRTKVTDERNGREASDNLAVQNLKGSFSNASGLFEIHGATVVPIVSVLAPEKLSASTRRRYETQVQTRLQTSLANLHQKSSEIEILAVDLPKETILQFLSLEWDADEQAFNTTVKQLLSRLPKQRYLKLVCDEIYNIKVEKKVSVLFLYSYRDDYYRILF

| Compound | pIC50 (eIF-2-alpha kinase GCN2 [1]) | pIC50 (eIF-2-alpha kinase GCN2 [2]) |
| --- | --- | --- |
| c1cc2cn[nH]c2cc1-n1nnc2nc(Nc3ccn(C4CCOCC4)n3)ncc21 | > 6.52 | > 6.52 |
| CCn1ccc(Nc2ncc3c(nnn3-c3ccc(C(C)(C)OCCO)cc3)n2)n1 | 6.52 | > 6.52 |
| CCOc1ccc(-n2nnc3nc(Nc4ccn(CCCC5CCNCC5)n4)ncc32)cc1 | > 6.52 | > 6.52 |
| O[C@H]1CC[C@H](n2ccc(Nc3ncc4c(nnn4-c4ccc(Cl)c(F)c4)n3)n2)CC1 | > 6.52 | > 6.52 |
